Assays:
honey bees = assay: Bee mortality in hoarding cages, 3c{3,6} sensed by smell; format: in vivo, Apis mellifera
Method: 3c{3,6} sensed by smell: Bees were maintained in the classic hoarding cages. The test was conducted on twenty freshly collected bees in hoarding cages as above. The method that was used for screening potentially harmful compounds was as described, for example, in Medrzycki et al., 2013 (J. Apicultural Res. 52 (4): UNSP 52.4.14, http://dx.doi.org/10.3896/IBRA.1.52.4.14, incorporated herein by reference in its entirety. The bees were provided with water and candy at lib. The experiments were conducted in ten sets in the presence of 30 μl of hexane containing 300 μg of the 3c{3,6} compound presented in Parafilm (5×5 cm); 30 μl of pure hexane was used for control. The experimental and control cages were kept in separate incubators at (28-30° C.) and RH (50-70%) and the bee mortality rate was recorded at 24, 48 and 72 hours. Survival of bees in control and treated groups at the end was similar (79-90%).

honey bee antennae = assay: Electroantennography (EAG) on honey bee antennae stimulated with nurse bee headspace odor; parameters: species or system Apis mellifera
Excerpt: (§1) In the electroantennography (EAG), the Varroa foreleg or bee antennae were used for the assay. The organs were stimulated by puffs of nurse honeybee odor, or clean air (control). Briefly, once a foreleg or bee antenna preparation was found responsive to a positive stimulus, the tested chemical was blown over the leg/antenna with or without positive stimuli. Headspace of five nurse bees was used as a positive stimulus. This stimuli were selected for Varroa following the procedure described, for example, in Eliash, N. et al., (2014) PLoS One, (2014) 9(12): e116127, incorporated herein by reference in its entirety, and following dose response tests on nurse antennae challenged with headspace of 1, 5 and 10 nurse or forager bees. Electrophysiological responses of isolated Varroa foreleg and bee antennae were recorded using Synthech equipment, and the order of stimuli was as explained in Singh, K. N. et al., (2014) Apidologie, 46: 380-391, incorporated herein by reference in its entirety. The response amplitude was recorded for each stimulus and normalized relative to air.

Varroa mites = assay: Example 2 dose response assay on 10 mites per plate; format: in vivo, Varroa destructor; details: doses in microgram
Method: The experiments were conducted in glass petri dish under control environment as described above in Example 1. Two sets of experiments were conducted compound 3c{3,6}:
1. Dose response assay on 10 mites per plate. Doses are in microgram.
In the first assay the percentage of dead mites as function of exposure time to different quantities of the compound was measured. […] The effective doses are relatively high.

Varroa = assay: Choice bioassay (forager vs nurse bee) in petri dish; format: in vivo, Varroa destructor; details: in presence of compound, monitored for 3 hours
Method: Functional activity of the compound was performed using choice bioassay. Briefly, in the presence of the synthetic compound or solvent as a control, the mites were given a choice of two bees (a forager and a nurse) in a petri dish (90 mm diameter and 17 mm deep glass). The movement of Varroa and its host preference were monitored at every hour for 3 hours.

[1] = test system: Varroa mites in honey bee colony; assay: Colony test with solid 3c{3,6} in organza bags; format: in vivo, Varroa destructor; details: after each addition of solid compound in sachets
Method: Colony test. One colony of two supers was treated with solid 3c{3,6}, delivered in organza bags. The colony was otherwise healthy (apart from having Varroa mites), and the bee cluster reached over both boxes. Above the top box was placed a queen excluder and a top-feeding box. The following treatments were done: i) Day 1: 4×60 mg with bags placed above the cluster in the top box (below the queen excluder) only; ii) After 30 days: 4×60 mg with bags placed above the cluster in the top box (below the queen excluder) only; iii) After an additional 14 days, 4×100 mg with two bags placed on top of the lower box (i.e. between the two boxes) and two bags placed on top of the cluster on the top box (just below the queen excluder) iv) After an additional 7 days, 4×100 mg was added and the bags from the previous week were kept in. On the third treatment two Pasteur pipettes with Porapak (wedged between glass wool plugs in the pipette) were installed, one in the middle of the top cluster, the other on the edge of the cluster. These were removed. The colony was fitted with a screened bottom platform and a white Varroa counting drawer underneath the screen. Mites on the counting drawer board were counted every few days.
Porapak cartridges were extracted with hexane:ethyl acetate (4:1) with 40 ng/μL of 1,4-dimethoxybenzene as internal standard. […]

Varroa destructor mites = assay: Example 3 mite paralysis/death in the absence of bees; format: in vivo; details: no bees
Method: Experiments were performed in the dishes: i) dose response assays with a single compound at different doses of compound on the Parafilm (1 ng, 10 ng, 100 ng, 1 μg, 10 μg, 100 μg, 1 mg and 10 mg), ii) a screen with six compounds, all at a 1 mg dose, iii) an assay with blends of compounds 3c{3,6} and 3c{6,6}, and iv) one assay without bees (only to check for mite paralysis and death), with compounds 3c{3,6} and 3c{6,6}(pure or 1:1 blend), at 0.5 and 1 mg doses.
Compounds 3c{3,6}, 3c{6,6} were tested on mites in the absence of bees, alone and as a 1:1 blend. Mite paralysis and death were checked every 30 min, up to 4.5 h after initial exposure. Four doses were tested: 0.2, 0.5, 1 and 10 mg.

Varroa foreleg = assay: Electroantennography (EAG) on Varroa foreleg stimulated with nurse bee headspace odor; parameters: species or system Varroa destructor
Excerpt: as §1

## C=CCOc1ccc(OCCC)cc1 [3c{3,6}, 1-allyloxy-4-propoxybenzene]
Honey bees; 300 μg in 30 μl hexane on Parafilm, 72 hours, control and treated groups similar
  Survival of bees at the end: 79-90%
Honey bees; in vivo
  lethal effect to the honey bees: No lethal effect
Honey bee antennae
  response of honey bee antennae towards nurse bee head space odor: not affected
Varroa mites
  percentage of dead mites as function of exposure time to different quantities (acaricidal effect, FIG. 1): clear and it is dose dependent
Varroa
  ability of Varroa to reach any host: decreased
[1]
  number of mites found on the bottom board per day: spike in the number of mites
Varroa destructor mites; 0.2 mg, 4.5 h
  mite paralysis+death: 40%
Varroa destructor mites; 0.5 mg, 4.5 h
  mite paralysis+death: 80%
Varroa destructor mites; 1 mg, up to 4.5 h
  mite paralysis or death: 100%
Varroa destructor mites; 10 mg, 4.5 h
  mite paralysis or death: 100%
Varroa foreleg
  Varroa foreleg responses towards head space odor of nurse bees: decreases

— US11540515B2, “Use of dialkoxybenzenes for control of honey bee mite varroa destructor” (Simon Fraser University, priority 2018, dated 2023)
